Reference: paper PMC10387993, “New pyrimidine-N-β-D-glucosides: synthesis, biological evaluation, and molecular docking investigations” (Turkish Journal of Chemistry, 2023)
Values after ≈ are worked out from the molar mass of the structure shown. Where two headings read alike, the source gives them in different places.

Experiments:
Type in all cases: cell-based
Hep3B = assay: cells; details: Homo sapiens
Summary of the method: (§1)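 Seed ~1 × 10^4 cells/well; final 200 μL. Add MTT in phenol-red-free RPMI 1640, 4 h. Solubilise formazan in DMSO + Sorenson's buffer, 30 min RT. Read 560/690 nm. ≥3 repeats.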

A549 = assay: cells; details: Homo sapiens
Summary of the method: as §1

MCF7 = assay: cells; details: Homo sapiens
Summary of the method: as §1

C6 (Rat brain glioma) = assay: cells; details: Rattus norvegicus
Summary of the method: as §1

HT29 = assay: cells; details: Homo sapiens
Summary of the method: as §1

HeLa = assay: cells; details: Homo sapiens
Summary of the method: as §1

[1] = tested on: P. aeruginosa AGME ATCC 27853; assay: Microdilution MIC assay; details: Pseudomonas aeruginosa, ATCC27853; P. aeruginosa AGME ATCC 27853, 24 h at 35 °C
Summary of the method: (§2)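 Visually scored microwell dilution test (35 °C, 24 h), endpoint no turbidity.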

S. mutans ATCC 35668 = assay: Microdilution MIC assay; details: S. mutans ATCC 35668, 24 h at 35 °C
Summary of the method: as §2

[2] = tested on: S. aureus MSSA ATCC 29213; assay: Microdilution MIC assay; details: Staphylococcus aureus, 24 h, S. aureus MSSA ATCC 29213, 24 h at 35 °C; read-out: MIC
Summary of the method: as §2

S. gordonii NCTC 7870 = assay: Microdilution MIC assay; details: Streptococcus gordonii, NCTC7870; S. gordonii NCTC 7870, 24 h at 35 °C
Summary of the method: as §2

S. aureus ATCC 25923 = assay: Microdilution MIC assay; details: Staphylococcus aureus, ATCC25923, 24 h, S. aureus ATCC 25923, 24 h at 35 °C; read-out: MIC
Summary of the method: as §2

E. coli ESBL ATCC 35218 = assay: Microdilution MIC assay; details: Escherichia coli, ATCC35218; E. coli ESBL ATCC 35218, 24 h at 35 °C
Summary of the method: as §2

[3] = tested on: A. actinomycetemcomitans ATCC 33384; assay: Microdilution MIC assay; details: Aggregatibacter actinomycetemcomitans, ATCC33384; A. actinomycetemcomitans ATCC 33384, 24 h at 35 °C
Summary of the method: as §2

E. faecalis ATCC 29212 = assay: Microdilution MIC assay; details: Enterococcus faecalis, ATCC29212, 24 h, E. faecalis ATCC 29212, 24 h at 35 °C; read-out: MIC
Summary of the method: as §2

[4] = tested on: E. faecalis VRE ATCC 19433; assay: Microdilution MIC assay; details: Enterococcus faecalis; E. faecalis VRE ATCC 19433, 24 h at 35 °C
Summary of the method: as §2

E. coli ATCC 25922 = assay: Microdilution MIC assay; details: Escherichia coli, ATCC25922; E. coli ATCC 25922, 24 h at 35 °C
Summary of the method: as §2

[5] = tested on: S. aureus MRSA ATCC 46300; assay: Microdilution MIC assay; details: Staphylococcus aureus; S. aureus MRSA ATCC 46300, 24 h at 35 °C; read-out: MIC
Summary of the method: as §2

normal FL cells = assay: cells; details: FL normal cells, MTT
Summary of the method: as §1

`Cc1ccccc1-c1cc(-c2ccccn2)nc(N[C@@H]2O[C@H](CO)[C@@H](O)[C@H](O)[C@H]2O)n1` [Compound 1, N-[4-(2-methylphenyl)-6-pyridin-2-ylpyrimidin-2-yl]-β-D-glucopyranosylamine] showed a GI50 (Hep3B; MTT) of 5.38 µg/mL (≈ 12.7 µM), an IC50 (Hep3B; MTT, read-out: IC50) greater than 500 µg/mL and an IC (total growth inhibition) (Hep3B; MTT, read-out: TGI) greater than 500 µg/mL. It also gave an LC50 (concentration causing 50% net cell loss relative to time zero) (Hep3B; read-out: LC50) greater than 500 µg/mL, an LC50 (concentration causing 50% net cell loss) (A549; A549, read-out: LC50) greater than 500 µg/mL and a GI50 (A549; A549, MTT) of 67.8 µg/mL (≈ 160 µM). The IC50 (A549; A549, MTT, read-out: IC50) was greater than 500 µg/mL, the IC (total growth inhibition) (A549; A549, MTT, read-out: TGI) was greater than 500 µg/mL and the LC50 (concentration causing 50% net cell loss relative to time zero) (MCF7; MCF7, read-out: LC50) was greater than 500 µg/mL. For the same compound, the GI50 (MCF7; MCF7, MTT) was 1.81 µg/mL (≈ 4.26 µM), the IC50 (MCF7; MCF7, MTT, read-out: IC50) was greater than 500 µg/mL and the IC (total growth inhibition) (MCF7; MCF7, MTT, read-out: TGI) was greater than 500 µg/mL. For the same compound, the LC50 (concentration giving 50% net cell loss relative to time zero) (C6 (Rat brain glioma); read-out: LC50) was 245 µg/mL (≈ 578 µM), the GI50 (C6 (Rat brain glioma); C6, MTT) was 6.34 µg/mL (≈ 14.9 µM) and the IC50 (C6 (Rat brain glioma); C6, MTT, read-out: IC50) was 41.2 µg/mL (≈ 97.1 µM). It also gave an IC (total growth inhibition) (C6 (Rat brain glioma); C6, MTT, read-out: TGI) of 24.3 µg/mL, an LC50 (concentration giving 50% net cell loss relative to time zero) (HT29; HT-29, read-out: LC50) greater than 500 µg/mL and a GI50 (HT29; HT-29, HT29, MTT) of 3.41 µg/mL (≈ 8.03 µM). It also gave an IC50 (HT29; HT-29, HT29, MTT, read-out: IC50) of 198 µg/mL (≈ 466 µM), an IC (total growth inhibition) (HT29; HT-29, HT29, MTT, read-out: TGI) greater than 500 µg/mL and a GI50 (HeLa; MTT) of 10.5 µg/mL (≈ 24.8 µM). The IC50 (HeLa; MTT, read-out: IC50) was 54.4 µg/mL (≈ 128 µM), the IC (total growth inhibition) (HeLa; MTT, read-out: TGI) was 35.1 µg/mL and the LC50 (concentration causing 50% net cell loss) (HeLa; read-out: LC50) was 218 µg/mL (≈ 514 µM). It also gave an MIC [1] greater than 1000 µg/mL, an MIC (S. mutans ATCC 35668) of 62.5 µg/mL (≈ 147 µM) and an MIC (S. mutans ATCC 35668; Streptococcus mutans, ATCC35668, 24 h, read-out: MIC) of 62.5 to 125 µg/mL (≈ 147 to 294 µM). For the same compound, the MIC [2] was 500 µg/mL (≈ 1180 µM), the MIC (S. gordonii NCTC 7870) was 250 µg/mL (≈ 589 µM) and the MIC (S. aureus ATCC 25923) was 500 µg/mL (≈ 1180 µM). For the same compound, the MIC (E. coli ESBL ATCC 35218) was greater than 1000 µg/mL, the MIC [3] was 500 µg/mL (≈ 1180 µM) and the MIC (E. faecalis ATCC 29212) was 1000 µg/mL (≈ 2360 µM). The MIC [4] was greater than 1000 µg/mL, the MIC (E. coli ATCC 25922) was greater than 1000 µg/mL and the MIC [5] was 1000 µg/mL (≈ 2360 µM). It also gave a GI50 (normal FL cells) of 3.1 µg/mL (≈ 7.3 µM), an IC50 (normal FL cells; read-out: IC50) of 77.4 µg/mL (≈ 182 µM) and an IC (total growth inhibition) (normal FL cells; read-out: TGI) of 81.6 µg/mL.
